Measured values: patent US11524950B2, “Treatment of immune-related and inflammatory diseases” (Celgene Corporation, priority 2012, dated 2022)

Experiments:
[1] = system: Human umbilical vascular endothelial cells; test: Human umbilical vascular endothelial cell tube formation assay; assay type: cell-based; details: VEGF-induced; at 10 μM; p<0.05 vs stimulated DMSO control
Experimental: Human Umbilical Vascular Endothelial Cell Tube Formation Assay: Compounds were tested in the growth factor-induced HUVEC tube formation assay. The tube formation plates were incubated at 37° C. for 30 minutes for matrigel to polymerize. The HUVECs were starved in 0.1% BSA basal EBM2 medium for 5 hours after washing with the same medium 3 times. The cells were trypsinized and centrifuged. Then 25 μL of 4× serially diluted compounds (10, 1, 0.1, 0.01, 0.001, 0.0001, 0.00001 μM) were added in duplicate with 50 μL of 2×10^4 cells/well to tube formation plates coated with matrigel. […] of 4×VEGF (final concentration=25 ng/mL) or bFGF (final concentration=10 ng/mL) were added to the plates. The cells were then incubated overnight (˜18 hours) at 37° C. in a humidified incubator. The tubule webs were stained with calcein AM at […] in 2% FBS/HBSS for 30 minutes and images taken by fluorescence microscopy. The tubules were quantified by the MetaMorph tube formation software program for tube area and tube length.
The percentage inhibition of cell proliferation, tube formation, migration, and invasion was calculated by subtracting the result for unstimulated DMSO control from test sample results, averaging all replicates, and normalizing to the growth factor-stimulated DMSO control (0% inhibition). The IC50 values were calculated by using GraphPad Prism 5.0.

[2] = system: CTGF, PAI-1, COL1A1, TGFB1; test: Tsk-1 mouse skin TGF-β pathway gene overexpression (qRT-PCR); assay type: in vivo; details: 30 mg/kg
Text: Next, to examine the effect of the compound on the overexpression of TGF-β pathway genes in Tsk-1 mouse skin, qRT-PCR was used to measure mRNA levels for six genes: CTGF, PAI-1, COL1A1, α-smooth muscle actin (ALPHA SMA), cartilage oligomeric protein 1 (COMP), and TGFB1. Overexpression was defined as the excess mRNA levels observed in Tsk-1 mouse skin compared to normal pa/pa mouse skin. […] PAI-1 and TGFB1 gene overexpression was not inhibited by the compound.

IgM [3] = test: IgM production in normal PBMC differentiation cultures (ELISA); details: Homo sapiens, read-out: IgM IC50 (nM) Normal (n = 3)
Experimental: Step 1—B cell Activation—day 0 through day 4: Prepare fresh B cell cocktail by adding 50 μg/mL of human transferrin to B cell media. (Iscoves+10% PFBS, 1% P/S, and 5 μg/mL human insulin). […] Five milliliters (1×10^5/ml) of CD19+ B cell were added to each well of a 6 well flat-bottom plate (final cell count=5×10^5/well). Five L (lx)±compound/DMSO was added to each test well (0.1% final DMSO) and incubated at 37° C. for 4 days.
Step 2—Plasmablast Generation—day 4 through day 7: Cells were harvested and counted on the cell counter; an aliquot was removed for flow analysis, the remaining cells were washed with PBS. Prepare fresh B cell cocktail by adding 1 μg/ml of human transferrin to B cell media. […] Add B cell differentiation cocktail (final concentration): recombinant human IL-2 (20 U/mL), IL-10 (50 ng/mL), IL-15 (10 ng/mL), IL-6 (50 ng/mL) to cells. Add fresh B cell cocktail and transfer cells back to the original wells and bring volume back to 5 mL. Five L (1×)±compound/DMSO was added to each test well (0.1% final DMSO) and incubated at 37° C. for 4 days.
(§1) Supernatants (from section 8.2.3) were harvested and analyzed by ELISA for IgG and IgM production (ZeptoMetrix Corp. Buffalo, N.Y.).
The data was graphed using GraphPad Prism 5.0 software.
IgM and IgG were measured by ELISA.

CD19+ B cells = test: Cell viability during plasmablast differentiation (live cell count); assay type: cell-based, human; details: for percentage of total viable cells: after 4 days
Text: To determine live cell count, B cells (see section 8.2.3) were stained with 0.4% trypan blue and live cells counted using the Countess automated cell counter (Invitrogen) in duplicate samples.

BLIMP-1, XBP-1, and IgJ = test: Plasmablast lineage factor gene expression (qRT-PCR), SLE patient PBMC; assay type: cell-based, human; details: 20 nM, n=3
IL-2 = test: T-cell costimulation: IL-2 production (immobilized anti-CD3, ELISA); assay type: cell-based; details: Homo sapiens, 48 h, immobilized anti-CD3, 2 days, read-out: EC50 for co-stimulated IL-2 production by T cells
Experimental: CRBN ubiquitination was measured in HEK293T cells, which were transfected with an amino-terminal His-biotin-tagged CRBN construct, then preincubated with compounds for one hour followed by treatment with the MG132 proteasome inhibitor (to arrest degradation of ubiquitinated proteins). Cells were lysed and processed to measure CRBN ubiquitination by SDS-PAGE and immunoblot analysis using an anti-ubiquitin antibody. Cell proliferation studies were conducted in enalidomide-sensitive and refractory multiple myeloma cells. […] T-cell costimulation was measured in purified primary human T cells stimulated using immobilized anti-CD3 antibody in cell culture for 2 days, and cytokine secretion was measured by ELISA.

IgM [4] = test: IgM production by SLE patient PBMC (ELISA); details: Homo sapiens, read-out: IgM IC50 (nM) SLE (n = 3)
Experimental: as §1
B Cell Differentiation Protocol: Enriched B cells were isolated from fresh buffy-coat (leukocyte enriched units) by Ficoll-Hypaque density gradient centrifugation followed by incubation with EasySep negative selection human B cell enrichment kit (Stem cell technologies). In brief, 2×10^8/ml PBMC were mixed with 4 ml of Robosep buffer and transferred to a 14 mL polystyrene round bottom tube. EasySep Human B cell enrichment cocktail (200 μL) was added per tube, vortexed and incubated at room temperature for 10 minutes. […] After cells were counted, an aliquot was removed for FACS analysis and the remaining cells were used for culture. […]
CD19+ peripheral blood human B cells from normal donors, or total peripheral blood mononuclear cell PBMC for patients with systemic lupus erythematosus (“SLE”), were cultured in the presence of interleukin (“IL”)-2, IL-10, IL15, TLR9 agonist, and CD40 L for 4 days, followed by IL-2, IL-6, IL-10 and IL-15 for another 3 days. Cells were counted, viability assessed, and expression of CD20, CD38, CD44, and CD83 were measured by flow cytometry. Plasmablast lineage factors IRF-4, BLIMP-1, XBP-1, and IgJ, and germinal center markers PAX-5 and BCL-6 were measured by qRT-PCR. […] Secreted immunoglobulins IgG and IgM were measured by ELISA.

Tsk-1 mouse = test: Tight skin-1 (Tsk-1) mouse model: hypodermal thickness and hydroxyproline; assay type: in vivo; details: 30 mg/kg
Text: First, the inhibitory effects of the compound on fibrosis in the Tsk-1 tight skin mouse model were also investigated.

BCL-6, IRF-4 and BLIMP-1 = test: Transcription factor protein expression by laser scanning cytometry, SLE patient PBMC; assay type: cell-based, human; details: CD38+ plasmablast/plasma cells, Day 4 and Day 7 SLE patient PBMC
Experimental: Preparation Of Cytospin From Single Cell Suspension And Immunofluorescence Staining for iCyte: A cell suspension of not more than 0.5×10^6 cells/ml of 2% FBS-containing PBS was prepared. Up to 200 μl of this suspension was loaded in each cuvette and spinned at 800 rpm for 3 min. The cuvette and the paper were carefully detached without damaging the fresh cytospin and proceeded with either immediate fixation or drying. Unfixed cytospins were stored for max 2 days at room temperature. Cells on slides were fixed with increasing concentrations of EtOH and allowed to dry prior to staining. After blocking non-specific binding with normal serum (species same as secondary antibody), sections were incubated with the mixture of following monoclonal antibodies in a humidified chamber at cool room for overnight: (i) anti-human CD38 as plasmablast cell marker, and (ii) anti-BCL-6, IRF-4, BLIMP-1, PAX5 and XBP-1 for transcription factor proteins. After washings, slides were incubated for 1 hr at room temperature in dark with the mixture of secondary antibodies which were raised in different species (with two different fluorochromes, i.e., Alexa Fluor-488 and Alexa Fluor-633). The slides were then rinsed in PBS, counterstained with DAPI for 20 minutes at room temperature, coverslipped with anti-fade fluorescent mounting medium, and sealed with nail polish. The slides were stored in dark at 4° C. To exclude false positives produced by nonspecific binding of the secondary antibody, all of the tissues were treated in the same manner with buffer substituting for the primary antibody. The color of the antibody staining was observed and quantity was analyzed in the tissue sections using iCyte.

[5] = Tsk-1 vs pa/pa mouse skin mRNA, p≤0.001

## O=C1CC[C@@H](N2Cc3c(OCc4ccc(CN5CCOCC5)cc4)cccc3C2=O)C(=O)N1 [R-enantiomer, (R)-3-[4-(4-morphlin-4-ylmethylbenzyloxy)-1-oxo-1,3-dihydro-isoindo-2-yl]piperidine-2,6-dione]
[1]
  tube area and length: significant inhibition

## O=C1CC[C@H](N2Cc3c(OCc4ccc(CN5CCOCC5)cc4)cccc3C2=O)C(=O)N1 [Test compound, (S)-3-[4-(4-morphlin-4-ylmethylbenzyloxy)-1-oxo-1,3-dihydro-isoindo-2-yl]piperidine-2,6-dione]
[2]
  PAI-1 gene overexpression: not inhibited
  TGFB1 gene overexpression: not inhibited
[2]; [5]
  reduction of overexpression of COL1A1: 129%
  reduction of overexpression of CTGF: 79%
IgM [3]
  IC50: 0.35 nM
CD19+ B cells; 20 nM
  percentage of total viable cells: 69.6 % of control
CD19+ B cells; 200 nM
  percentage of total viable cells: 35.8 % of control
CD19+ B cells; first 4 days of culture
  B cell viability: reduced
BLIMP-1, XBP-1, and IgJ
  BLIMP-1 gene expression: 52.8 % of control
  IgJ gene expression: 13.6 % of control
  XBP-1 gene expression: 49.2 % of control
IL-2
  EC50: ~290 pM
IgM [4]
  IC50: 0.9 nM
Tsk-1 mouse
  reduction of collagen content of the skin (hydroxyproline levels): 38%
Tsk-1 mouse; p≤0.001
  reduction of hypodermal thickening: 45%
BCL-6, IRF-4 and BLIMP-1
  BCL-6 expression: significantly increased
  BLIMP-1 expression: inhibited
  RF-4 expression: inhibited
BCL-6, IRF-4 and BLIMP-1; listed as Compound I-S
  BCL-6 expression: increased
  BLIMP-1 expression: significantly reduced
  RF-4 expression: significantly reduced
